Experimental data: the NIST ThermoML archive (doi:10.1021/acs.jced.7b00898)
Numbers after ± are expanded uncertainties.

Experiment: xn = mol fraction of the nth substance listed
Conditions: 100 kPa, Liquid; for electrical conductivity: Alternating current cell with electrodes; for viscosity: Falling or rolling sphere viscometry; for mass density: Vibrating tube method

C[n+]1ccn(CCCC#N)c1.F[B-](F)(F)F [1-butyronitrile-3-methylimidazolium tetrafluoroborate] + CC#N
Conditions | electrical conductivity [S/m] | mass density [kg/m3] | viscosity [mPa·s]
288.15 K, x1 = 0.1004 | 3.71 ± 0.5 | 951.03 ± 1.9 | 1.783 ± 0.18
288.15 K, x1 = 0.2003 | 2.62 ± 0.41 | 1058.56 ± 2.1 | 5.545 ± 0.56
288.15 K, x1 = 0.3013 | 1.68 ± 0.31 | 1131.24 ± 2.3 | 13.17 ± 1.3
288.15 K, x1 = 0.3996 | 1.05 ± 0.24 | 1179.83 ± 2.4 | 30.38 ± 3.1
288.15 K, x1 = 0.4999 | 0.558 ± 0.17 | 1218.22 ± 2.5 | 72.81 ± 7.3
288.15 K, x1 = 0.5996 | 0.365 ± 0.14 | 1248.27 ± 2.5 | 105.8 ± 11
288.15 K, x1 = 0.7001 | 0.28 ± 0.12 | 1271.85 ± 2.6 | 150.9 ± 16
288.15 K, x1 = 0.8024 | 0.157 ± 0.093 | 1289.62 ± 2.6 | 287 ± 33
288.15 K, x1 = 0.8885 | 0.126 ± 0.083 | 1302.35 ± 2.6 | 372.8 ± 44
288.15 K, x1 = 1 | 0.058 ± 0.056 | 1316.07 ± 2.7 | 590.6 ± 74
293.15 K, x1 = 0.1004 | 3.98 ± 0.53 | 946.91 ± 1.9 | 1.645 ± 0.17
293.15 K, x1 = 0.2003 | 2.89 ± 0.43 | 1054.28 ± 2.1 | 4.901 ± 0.49
293.15 K, x1 = 0.3013 | 1.93 ± 0.34 | 1126.73 ± 2.3 | 11.15 ± 1.1
293.15 K, x1 = 0.3996 | 1.24 ± 0.26 | 1175.56 ± 2.4 | 24.74 ± 2.5
293.15 K, x1 = 0.4999 | 0.685 ± 0.19 | 1214.12 ± 2.4 | 56.55 ± 5.7
293.15 K, x1 = 0.5996 | 0.467 ± 0.16 | 1244.16 ± 2.5 | 80.64 ± 8.2
293.15 K, x1 = 0.7001 | 0.352 ± 0.14 | 1268.21 ± 2.6 | 113.9 ± 12
293.15 K, x1 = 0.8024 | 0.208 ± 0.11 | 1286.11 ± 2.6 | 207.7 ± 23
293.15 K, x1 = 0.8885 | 0.174 ± 0.098 | 1298.72 ± 2.6 | 266.5 ± 30
293.15 K, x1 = 1 | 0.085 ± 0.068 | 1312.33 ± 2.7 | 417.9 ± 50
298.15 K, x1 = 0.1004 | 4.28 ± 0.55 | 942.92 ± 1.9 | 1.52 ± 0.15
298.15 K, x1 = 0.2003 | 3.2 ± 0.46 | 1049.89 ± 2.1 | 4.361 ± 0.44
298.15 K, x1 = 0.3013 | 2.21 ± 0.37 | 1122.41 ± 2.2 | 9.572 ± 0.96
298.15 K, x1 = 0.3996 | 1.46 ± 0.29 | 1171.47 ± 2.4 | 20.18 ± 2
298.15 K, x1 = 0.4999 | 0.834 ± 0.21 | 1210.15 ± 2.4 | 45.13 ± 4.5
298.15 K, x1 = 0.5996 | 0.588 ± 0.18 | 1240.19 ± 2.5 | 62.96 ± 6.3
298.15 K, x1 = 0.7001 | 0.47 ± 0.16 | 1264.41 ± 2.5 | 87.6 ± 8.9
298.15 K, x1 = 0.8024 | 0.286 ± 0.12 | 1282.71 ± 2.6 | 154.3 ± 16
298.15 K, x1 = 0.8885 | 0.236 ± 0.11 | 1294.92 ± 2.6 | 195.6 ± 21
298.15 K, x1 = 1 | 0.123 ± 0.082 | 1308.61 ± 2.7 | 302.6 ± 35
303.15 K, x1 = 0.1004 | 4.56 ± 0.58 | 938.82 ± 1.9 | 1.412 ± 0.14
303.15 K, x1 = 0.2003 | 3.51 ± 0.49 | 1045.59 ± 2.1 | 3.908 ± 0.39
303.15 K, x1 = 0.3013 | 2.5 ± 0.4 | 1117.84 ± 2.2 | 8.303 ± 0.83
303.15 K, x1 = 0.3996 | 1.7 ± 0.32 | 1167.21 ± 2.3 | 16.91 ± 1.7
303.15 K, x1 = 0.4999 | 0.997 ± 0.23 | 1205.98 ± 2.4 | 36.59 ± 3.7
303.15 K, x1 = 0.5996 | 0.719 ± 0.2 | 1236.29 ± 2.5 | 50.09 ± 5
303.15 K, x1 = 0.7001 | 0.585 ± 0.18 | 1260.73 ± 2.5 | 68.7 ± 6.9
303.15 K, x1 = 0.8024 | 0.372 ± 0.14 | 1279.28 ± 2.6 | 117.1 ± 12
303.15 K, x1 = 0.8885 | 0.308 ± 0.13 | 1291.38 ± 2.6 | 147 ± 16
303.15 K, x1 = 1 | 0.171 ± 0.097 | 1304.81 ± 2.6 | 223.3 ± 25
308.15 K, x1 = 0.1004 | 4.84 ± 0.6 | 934.73 ± 1.9 | 1.315 ± 0.13
308.15 K, x1 = 0.2003 | 3.83 ± 0.51 | 1041.36 ± 2.1 | 3.529 ± 0.35
308.15 K, x1 = 0.3013 | 2.8 ± 0.42 | 1113.43 ± 2.2 | 7.266 ± 0.73
308.15 K, x1 = 0.3996 | 1.97 ± 0.34 | 1163.02 ± 2.3 | 14.47 ± 1.4
308.15 K, x1 = 0.4999 | 1.19 ± 0.26 | 1201.89 ± 2.4 | 30.15 ± 3
308.15 K, x1 = 0.5996 | 0.87 ± 0.22 | 1232.29 ± 2.5 | 40.62 ± 4.1
308.15 K, x1 = 0.7001 | 0.719 ± 0.2 | 1257.04 ± 2.5 | 54.9 ± 5.5
308.15 K, x1 = 0.8024 | 0.475 ± 0.16 | 1275.69 ± 2.6 | 90.99 ± 9.3
308.15 K, x1 = 0.8885 | 0.392 ± 0.15 | 1287.73 ± 2.6 | 112.9 ± 12
308.15 K, x1 = 1 | 0.231 ± 0.11 | 1301.05 ± 2.6 | 169.9 ± 18
313.15 K, x1 = 0.1004 | 5.13 ± 0.62 | 930.78 ± 1.9 | 1.228 ± 0.12
313.15 K, x1 = 0.2003 | 4.16 ± 0.54 | 1037.03 ± 2.1 | 3.204 ± 0.32
313.15 K, x1 = 0.3013 | 3.1 ± 0.45 | 1109.04 ± 2.2 | 6.436 ± 0.64
313.15 K, x1 = 0.3996 | 2.27 ± 0.37 | 1158.93 ± 2.3 | 12.49 ± 1.2
313.15 K, x1 = 0.4999 | 1.4 ± 0.28 | 1197.89 ± 2.4 | 25.23 ± 2.5
313.15 K, x1 = 0.5996 | 1.04 ± 0.24 | 1228.43 ± 2.5 | 33.47 ± 3.4
313.15 K, x1 = 0.7001 | 0.87 ± 0.22 | 1253.43 ± 2.5 | 44.63 ± 4.5
313.15 K, x1 = 0.8024 | 0.599 ± 0.18 | 1272.33 ± 2.6 | 71.79 ± 7.2
313.15 K, x1 = 0.8885 | 0.491 ± 0.16 | 1284.14 ± 2.6 | 88.12 ± 8.9
313.15 K, x1 = 1 | 0.305 ± 0.13 | 1297.32 ± 2.6 | 128.7 ± 13
318.15 K, x1 = 0.1004 | 5.41 ± 0.65 | 926.61 ± 1.9 | 1.153 ± 0.12
318.15 K, x1 = 0.2003 | 4.49 ± 0.57 | 1032.73 ± 2.1 | 2.936 ± 0.29
318.15 K, x1 = 0.3013 | 3.4 ± 0.48 | 1104.71 ± 2.2 | 5.741 ± 0.58
318.15 K, x1 = 0.3996 | 2.59 ± 0.4 | 1154.62 ± 2.3 | 10.85 ± 1.1
318.15 K, x1 = 0.4999 | 1.63 ± 0.31 | 1193.83 ± 2.4 | 21.38 ± 2.1
318.15 K, x1 = 0.5996 | 1.22 ± 0.26 | 1224.39 ± 2.5 | 28 ± 2.8
318.15 K, x1 = 0.7001 | 1.04 ± 0.24 | 1249.69 ± 2.5 | 36.82 ± 3.7
318.15 K, x1 = 0.8024 | 0.734 ± 0.2 | 1268.86 ± 2.6 | 57.48 ± 5.8
318.15 K, x1 = 0.8885 | 0.603 ± 0.18 | 1280.51 ± 2.6 | 70.08 ± 7
318.15 K, x1 = 1 | 0.393 ± 0.15 | 1293.59 ± 2.6 | 100.6 ± 10
323.15 K, x1 = 0.1004 | 5.69 ± 0.67 | 922.4 ± 1.9 | 1.084 ± 0.11
323.15 K, x1 = 0.2003 | 4.82 ± 0.6 | 1028.51 ± 2.1 | 2.695 ± 0.27
323.15 K, x1 = 0.3013 | 3.7 ± 0.5 | 1100.31 ± 2.2 | 5.152 ± 0.52
323.15 K, x1 = 0.3996 | 2.95 ± 0.44 | 1150.56 ± 2.3 | 9.38 ± 0.94
323.15 K, x1 = 0.4999 | 1.87 ± 0.33 | 1189.85 ± 2.4 | 17.96 ± 1.8
323.15 K, x1 = 0.5996 | 1.42 ± 0.28 | 1220.51 ± 2.5 | 23.76 ± 2.4
323.15 K, x1 = 0.7001 | 1.22 ± 0.26 | 1245.99 ± 2.5 | 30.77 ± 3.1
323.15 K, x1 = 0.8024 | 0.872 ± 0.22 | 1265.38 ± 2.5 | 47.05 ± 4.7
323.15 K, x1 = 0.8885 | 0.73 ± 0.2 | 1276.87 ± 2.6 | 56.76 ± 5.7
323.15 K, x1 = 1 | 0.498 ± 0.17 | 1289.86 ± 2.6 | 79.82 ± 8.1
